# In US20060241096A1, “Agent for preventing or treating organ functional disorders and organ dysfunction” (priority 2001, published 2006):
# Marks after values point to notes of the source that are not given here.
# Assays:
# myocardial infarction = test: Effect on myocardial infarction (Test Example 5); assay type: in vivo, rat; conditions: male Wistar rats, left coronary artery ligated 25 min, 2 hrs reperfusion, mean ± standard error, N = 7-10
# Method: Each of 6-week old male Wistar rats (7-10 rats per group) was forced oral administration of vehicle, test compound 1 (2, 20 mg/kg), Atorvastatin (2, 20 mg/kg), Simvastatin (2, 20 mg/kg) using a gastric sonde by the volume of 1 mL/kg and once per day for 15 days. After 1 hr of the final administration, the anterior descending-branch of left coronary artery was ligated and reperfused after 25 min. After 2 hrs of reperfusion, Evance blue was intravenously injected from the right cervical vein so that the non-ischemic area was stained and can be distinguished from the ischemic area, and the rats were slaughtered. The ischemic area was carved out, and the living area was stained using p-nitroblue tetrazolium and distinguished from the necrotic area (portion of myocardial infarction). The area of myocardial infarction was calculated by the weight ratio relative to the ischemic area (Table 5).
# [1] = test system: ubiquinone (CoQ9) in heart; test: Ubiquinone increasing effect in heart (Test Example 1); assay type: in vivo, rat; conditions: male SD rats, mean ± standard error, N = 8
# Method: (§1) Each of 6-week old male SD rats (eight rats per group) was forced oral administration of a vehicle or test compound 1 using a gastric sonde by the volume of 5 mL/kg so that the doses became 6, 20, 60 mg/kg, respectively, once a day for 14 days. On the morning after 14 times of administration, the animals were beheaded to slaughter. Hearts were collected immediately, frozen in liquid nitrogen and stored at −80° C. On the following day, the hearts were homogenized and oxidized with iron(III) chloride. After extraction with ethanol/hexane, the concentration of ubiquinone was determined by HPLC (Table 1).
# [2] = test system: ubiquinone (CoQ9, CoQ10) in brain; test: Ubiquinone increasing effect in brain (Test Example 3); assay type: in vivo, rat; conditions: male SD rats, 14 administrations, arteria cerebri media occluded 2 h, 8 hrs reperfusion, right cerebral cortices and striata, mean ± standard error, N = 8
# Method: Each of 6-week old male SD rats (eight rats per group) was forced oral administration of a vehicle or test compound 1 using a gastric sonde by the volume of 5 mL/kg so that the doses became 2, 20 mg/kg, respectively. The day after 14 times of administration, a silicone plug was inserted from the carotid artery under halothane anesthetic to occlude proximal portion of the arteria cerebri media. After two hours, the plug was removed under light anesthetic, and reperfusion was carried out. After 8 hrs of reperfusion, the rats were beheaded to slaughter. The right cerebral cortices and striata were collected, frozen on dry ice and preserved at −80° C. On the following day, the right cerebral cortices and striata were homogenized and oxidized with iron(III) chloride. After extraction with ethanol/hexane, the concentration of ubiquinone was determined by HPLC (Table 3).
# cerebral infarction = test: Cerebral infarction suppressing effect (Test Example 4); assay type: in vivo, rat; conditions: male SD rats, 14 administrations, arteria cerebri media occluded 2 h, 48 hrs reperfusion, TTC staining, mean ± standard error, N = 19-22
# Method: Each of 6-week old male SD rats (19 to 22 rats per group) was forced oral administration of a vehicle or test compound 1 using a gastric sonde by the volume of 5 mL/kg so that the doses became 2, 20 mg/kg, respectively, using a gastric sonde. The day after 14 times of administration, a silicone plug was inserted from the carotid artery under halothane anesthetic to occlude proximal portion of the arteria cerebri media. After two hours, the plug was removed under light anesthetic, and reperfusion was carried out. After 48 hrs of reperfusion, the rats were beheaded to slaughter. Six pieces of sliced brain from the forehead (thickness: 2 mm) were carved out and subjected to TTC staining (1% TTC, 37° C., 15 min). The TTC-stained image was photographed by a digital camera, and the area of cerebral infarction was measured by an image analyzer. (Table 4)
# [3] = test system: ubiquinone (CoQ9) in liver and heart; test: Ubiquinone increasing effect in liver and heart (Test Example 2); assay type: in vivo, rat; conditions: male SD rats, mean ± standard error, N = 8
# Method: as §1, with “to slaughter. Liver and hearts were collected” for “to slaughter. Hearts were collected”, “day, the livers and hearts were” for “day, the hearts were”, “HPLC (Table 2).” for “HPLC (Table 1).”
# [4] = 2 mg/kg oral once per day for 15 days
# [5] = 20 mg/kg oral once per day for 15 days
# [6] = 6 mg/kg oral once a day for 14 days
# [7] = 20 mg/kg oral once a day for 14 days
# [8] = 60 mg/kg oral once a day for 14 days
smiles,measurement,setting,value
CC(C)c1c(C(=O)Nc2ccccc2)c(-c2ccccc2)c(-c2ccc(F)cc2)n1CC[C@@H](O)C[C@@H](O)CC(=O)O [Atorvastatin],Area of myocardial infarction,myocardial infarction; [4],51 ± 4 % ischemic area
same,Area of myocardial infarction,myocardial infarction; [5],47 ± 6 % ischemic area
"COc1cccc([C@H]2O[C@H](CC(=O)N3CCC(CC(=O)O)CC3)C(=O)N(CC(C)(C)COC(C)=O)c3ccc(Cl)cc32)c1OC [Compound 1, N-[[(3R,5S)-1-(3-acetoxy-2,2-dimethylpropyl)-7-chloro-5-(2,3-dimethoxyphenyl)-2-oxo-1,2,3,5-tetrahydro-4,1-benzoxazepin-3-yl]acetyl]piperidine-4-acetic acid]",Amount of CoQ9 in heart,[1]; [6],214.4 ± 6.6 μg/g heart
same,Amount of CoQ9 in heart,[1]; [7],215.3 ± 5.7 μg/g heart
same,Amount of CoQ9 in heart,[1]; [8],225.0 ± 4.6 μg/g heart
same,Amount of CoQ9 in brain,[2]; 2 mg/kg oral,22.0 ± 0.4 μg/g brain
same,Amount of CoQ10 in brain,[2]; 2 mg/kg oral,13.0 ± 0.3 μg/g brain
same,Amount of CoQ9 in brain,[2]; 20 mg/kg oral,24.9 ± 0.5 μg/g brain
same,Amount of CoQ10 in brain,[2]; 20 mg/kg oral,14.7 ± 0.3 μg/g brain
same,Area of myocardial infarction,myocardial infarction; [4],61 ± 4 % ischemic area
same,Area of myocardial infarction,myocardial infarction; [5],43 ± 2 % ischemic area
same,Volume of cerebral infarction,cerebral infarction; 2 mg/kg oral,289 ± 27 mm^3
same,Volume of cerebral infarction,cerebral infarction; 20 mg/kg oral,220 ± 35* mm^3
"COc1cccc([C@H]2O[C@H](CC(=O)Nc3cccc(CCC(=O)O)c3)C(=O)N(CC(C)(C)CO)c3ccc(Cl)cc32)c1OC [Compound 2, 3-[3-[[(3R,5S)-7-chloro-5-(2,3-dimethoxyphenyl)-1-(3-hydroxy-2,2-dimethylpropyl)-2-oxo-1,2,3,5-tetrahydro-4,1-benzoxazepin-3-yl]acetyl]aminophenyl]propionic acid]",melting point,,141 to 144 °C
same,Amount of CoQ9 in heart,[3]; [6],202.7 ± 2.7 μg/g heart
same,Amount of CoQ9 in liver,[3]; [6],105.2 ± 3.5 μg/g liver
same,Amount of CoQ9 in heart,[3]; [7],208.3 ± 4.6 μg/g heart
same,Amount of CoQ9 in liver,[3]; [7],117.6 ± 4.6 μg/g liver
same,Amount of CoQ9 in heart,[3]; [8],204.7 ± 4.0 μg/g heart
same,Amount of CoQ9 in liver,[3]; [8],125.4 ± 3.4 μg/g liver
CCC(C)(C)C(=O)O[C@H]1C[C@@H](C)C=C2C=C[C@H](C)[C@H](CC[C@@H]3C[C@@H](O)CC(=O)O3)[C@H]21 [Simvastatin],Area of myocardial infarction,myocardial infarction; [4],51 ± 3 % ischemic area
same,Area of myocardial infarction,myocardial infarction; [5],51 ± 2 % ischemic area
